In one data set the test system is Murine colon C26 cells. The data set is described as follows: Tumor cell proliferation assay (ATP Lite), C26. Format: cell-based. Particulars: Mus musculus, 96 h, 4 days. Summed up: (§1)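 Cells seeded at 1500/well (C26) or 2000/well (A375, MiaPaCa-2) grew overnight, then were exposed to serially diluted compounds (0.25% DMSO final) for 4 days in serum-containing DMEM or RPMI. Viability read by ATPlite luminescence; IC50 is the concentration giving 50% cell death.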

The subject of the next data set is human melanoma cell MeI5. The data set is described as follows: Tumor cell proliferation assay (ATP Lite), MeI5. The conditions noted are these: MeI5 cells. Format: cell-based. How it is done:
Assay 2: Tumor Cell Proliferation Assays (ATP Lite)
Murine colon C26, human melanoma A375 and MeI5 or human pancreatic MiaPaCa-2 cells were plated in 96 well Corning white plates (1500 cells/well for C26, and 2000 cells/well for A375, and MiaPaCa-2) and cultured overnight at 37° C. in 5% CO2. Inhibitors were serially diluted in 100% DMSO and subsequently added to cells to reach a final concentration of 0.25% DMSO. The cells were incubated for 4 days in the presence of test compounds in cell growth media (DMEM with 10% fetal bovine serum, 2 mM glutamine for C26, and MiaPaCa-2, and RPMI with 10% fetal bovine serum, 2 mM glutamine for A375). Cell proliferation was quantitated using the ATP lite cell proliferation kit (Packard). Columns 4-6 show the concentration of compounds required to induce 50% cell death (IC50 in μM) of […]. With “+” meaning 3 μM<IC50≦10 μM and “++” IC50≦3 μM and “n.d.” means not determined. Few compounds were also tested on human melanoma cell MeI5.

Another data set addresses human MEK1 (Homo sapiens, UniProt Q02750). The data set is described as follows: MEK-1 Enzyme Assay (LANCE-HTRF). In kind it is biochemical. The conditions noted are these: 100 nM MEK1, 15 μM ATP, 300 nM ERK2, two hours; read-out: MEK inhibition. An outline of the steps:
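TR-FRET readout of MEK1-catalysed ERK1 phosphorylation; after a 2 h reaction, Eu-anti-PY20 (5 nM) and anti-GST-APC (50 nM) were added in buffer with 50 mM EDTA and 0.05% BSA, then incubated 1 h in the dark.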
On the technique in general: In TR-FRET formats the signal depends on donor and acceptor labels being close together.

For data set [1] the following is noted: cited from earlier work.
Another data set concerns Tumors. The conditions noted are these: patients; cited from earlier work.
Data set [2] has as its system human melanoma A375 cells. The data set is described as follows: Tumor cell proliferation assay (ATP Lite), A375. In kind it is cell-based. Particulars: A-375, 96 h, 4 days. An outline of the steps: as §1
In another data set the test system is Caco-2 cells. The data set is described as follows: Caco-2 permeability assay. In kind it is in vitro ADME. The conditions noted are these: 10 μM, pH 7.4, 120 minutes; for Caco A-B: Papp apical to basolateral; for Caco B-A: Papp basolateral to apical. How it is done: Assay 4: Caco-2 Permeability Assay
Caco-2 cells obtained from the ATCC at passage number 27 are used. Cells (passage number 40-60) were seeded on to Millipore Multiscreen Caco-2 plates or Falcon HTS inserts at 1×10^5 cells/cm2. Cells were cultured for 20 days in DMEM and media was changed every two or three days. On day 20 the permeability study was performed.
Permeability was studied by applying compound to the apical surface of cell monolayers and measuring compound permeation into the basolateral compartment. The experiment was also performed in the reverse direction (B-A) to investigate active transport. Hanks Balanced Salt Solution (HBSS) pH 7.4 buffer with 25 mM HEPES and 10 mM glucose at 37° C. was used as the medium in permeability studies. Incubations were carried out in an atmosphere of 5% CO2 with a relative humidity of 95%.
The monolayers were prepared by rinsing both basolateral and apical surfaces twice with HBSS at 37° C. Cells were then incubated with HBSS in both apical and basolateral compartments for 40 minutes to stabilize physiological parameters.
HBSS was then removed from the apical compartment and replaced with test compound dosing solutions. The solutions were made by diluting 10 mM DMSO concentrates with HBSS to give a final test compound concentration of 10 μM (final DMSO concentration adjusted to 1%). The fluorescent integrity marker lucifer yellow was also included in the dosing solution. Analytical standards were made from dosing solutions. Test compound permeability was assessed in duplicate. On each plate compounds of known permeability characteristics were run as controls.
The apical compartment inserts were then placed into ‘companion’ plates containing fresh HBSS. For basolateral to apical (B-A) experiments the experiment was initiated by replacing buffer in the inserts then placing them in companion plates containing dosing solutions. At 120 minutes the companion plate was removed and apical and basolateral samples diluted for analysis by LC-MS/MS (the donor compartment was also sampled to permit determination of starting concentration after non-specific binding has occurred).
The integrity of the monolayers throughout the experiment is checked by monitoring lucifer yellow permeation using fluorimetric analysis. Lucifer yellow permeation was low if monolayers have not been damaged. Test and control compounds were quantified by LC-MS/MS cassette analysis using a 5-point calibration with appropriate dilution of the samples. Should lucifer yellow Papps were above QC limits in more than one well per test compound, the compound was re-tested.
The permeability coefficient for each compound (Papp) was calculated from the following equation: Papp=[dQ/dt]/[C0×A]
Whereby dQ/dt is the rate of permeation of the drug across the cells, C0 is the donor compartment concentration at time zero and A is the area of the cell monolayer. C0 is obtained from analysis of the donor compartment at the end of the incubation period.
Test compounds were grouped into low, medium or high absorption potential based on comparison with control compounds, which have known human absorption.
In addition, permeation was studied in both directions across the cells, and an asymmetry index was reported from mean A-B and B-A data. This was derived from: Papp(B-A)/Papp(A-B)
Wherein “+” means a caco A-B and caco B-A value of 1-10 and “++” means a caco A-B and caco B-A value of 11-100.
(In general: Caco-2 monolayers are a common model of the intestinal barrier.)

Data set [3] is described as follows: Microsomal stability assay, RLM. In kind it is in vitro ADME. The conditions noted are these: male, Sprague Dawley, pooled rat liver microsomes, pH 7.4; 3 μM compound, 0.5 mg/ml rat liver microsomes, 37° C., 2 mM NADPH; read-out: RLM t1/2. As for the experimental part: (§2) Assay 3: Microsomal Stability Assay
(§3) Compounds were tested on their stability in human, rat and mouse liver microsomal preparations (HLM, RLM and MLM respectively). At a final concentration of 3 μM, compounds were incubated at 37° C. with 0.5 mg/ml human, rat or mouse liver microsomes in a buffer containing 50 mM phosphate, pH 7.4 and 2 mM NADPH. Pooled human liver microsomes or pooled male rat liver microsomes (Sprague Dawley) were obtained from NatuTec (Frankfurt, Germany). Incubations without NADPH served as negative controls. Reactions were stopped after 0, 15, 30, 45 or 60 min by the addition of acetonitrile and microsomes were pelleted by centrifugation (10 min at 6200×g). Supernatants were analyzed by HPLC regarding the concentration of mother compound. Finally, the half life of compounds in the regarding microsomal preparation was calculated.
On the technique in general: Microsomes from liver hold many membrane-bound enzymes, among them those of drug oxidation.

The nature of data set [4]: Microsomal stability assay, MLM. Format: in vitro ADME. The conditions noted are these: pH 7.4; 3 μM compound, 0.5 mg/ml mouse liver microsomes, 37° C., 2 mM NADPH; read-out: MLM t1/2. How it is done: as §2, §3
Data set [5] can be described thus: Microsomal stability assay, HLM. In kind it is in vitro ADME. The conditions noted are these: pooled human liver microsomes, pH 7.4; 3 μM compound, 0.5 mg/ml human liver microsomes, 37° C., 2 mM NADPH; read-out: HLM t1/2. How it is done: as §2, §3

SMILES strings stand for the structures.

human MEK1, sequence (Q02750 whole entry): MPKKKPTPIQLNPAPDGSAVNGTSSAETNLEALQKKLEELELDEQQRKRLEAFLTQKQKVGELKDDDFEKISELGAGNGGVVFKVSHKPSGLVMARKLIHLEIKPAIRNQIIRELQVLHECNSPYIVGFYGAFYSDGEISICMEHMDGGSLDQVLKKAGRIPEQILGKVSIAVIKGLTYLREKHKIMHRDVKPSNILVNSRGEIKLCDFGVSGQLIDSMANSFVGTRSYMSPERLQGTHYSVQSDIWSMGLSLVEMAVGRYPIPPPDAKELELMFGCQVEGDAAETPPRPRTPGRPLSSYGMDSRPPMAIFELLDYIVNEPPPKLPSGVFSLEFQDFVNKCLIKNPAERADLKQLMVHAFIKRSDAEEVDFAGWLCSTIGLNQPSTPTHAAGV

`Cc1cc(I)ccc1Nc1cnccc1C(=O)NOC[C@@H](O)CO` [Example 124, N—((S)-2,3-Dihydroxy-propoxy)-3-(4-iodo-2-methyl-phenylamino)-isonicotinamide]: the IC50 with Murine colon C26 cells was 3 to 10 µM; in the data set with human melanoma cell MeI5, ≤ 3000 nM; at human MEK1, < 1000 nM.

`O=C(NOCC1CC1)c1ccc(F)c(F)c1Nc1ccc(I)cc1Cl` [PD-184352]: the bioavailability result in data set [1] is reported as “low”. Moreover, in the data set with Tumors, the “efficacy in clinical phase II trials” value is “lacking efficacy”.

Consider `CCONC(=O)c1ccncc1Nc1ccc(I)cc1C` [Example 5, N-Ethoxy-3-[(4-iodo-2-methylphenyl)amino]isonicotinamide], for which the IC50 was 3 to 10 µM in the data set on Murine colon C26 cells, ≤ 3000 nM in the data set with human melanoma cell MeI5, < 1000 nM on human MEK1 and ≤ 3 µM in data set [2].

Take `OCCNc1nnc(-c2ccncc2Nc2ccc(Br)cc2F)o1` [Example 127, 2-{5-[3-(4-Bromo-2-fluoro-phenylamino)-pyridin-4-yl]-[1,3,4]oxadiazol-2-ylamino}-ethanol]: the “Caco A-B” value in the data set with Caco-2 cells is “++ (a caco A-B and caco B-A value of 11-100)”. In addition, in the data set with Caco-2 cells, the “Caco B-A” value was “++ (a caco A-B and caco B-A value of 11-100)”. The half-life at 3 µM in [3] was > 2 h; in data set [4], 0.0167 to 0.5 h; in [5] it was > 2 h.

As for `C=CCNc1nnc(-c2ccncc2Nc2ccc(Br)cc2C)o1` [Example 129, [4-(5-Allylamino-[1,3,4]oxadiazol-2-yl)-pyridin-3-yl]-(4-bromo-2-methyl-phenyl)-amine], in the data set with Caco-2 cells, the “Caco A-B” value is “++ (a caco A-B and caco B-A value of 11-100)”. The “Caco B-A” value in the data set on Caco-2 cells is “++ (a caco A-B and caco B-A value of 11-100)”. For the same compound, the half-life at 3 µM was 0.517 to 2 h in [3], > 2 h in [4] and > 2 h in [5]. Besides, on human MEK1, the IC50 is < 1000 nM.

As for `Cc1cc(I)ccc1Nc1cnccc1C(=O)NOC[C@H](O)CO` [Example 9, 3-[(2-methyl-4-iodophenyl)amino]-N-{[(2R)-2,3-dihydroxypropyl]oxy}-isonicotinamide], the IC50 in the data set on Murine colon C26 cells is 3 to 10 µM; on human MEK1, < 1000 nM; in [2], ≤ 3 µM. Also, in the data set with Caco-2 cells, the “Caco A-B” value is “+ (a caco A-B and caco B-A value of 1-10)”. In addition, the “Caco B-A” value in the data set with Caco-2 cells is “++ (a caco A-B and caco B-A value of 11-100)”. Further, the half-life at 3 µM in data set [3], in data set [4] and in [5] was > 2 h throughout.

For the compound `CCONC(=O)c1ccncc1Nc1ccc(Br)cc1C` [Example 4, 3-[(4-Bromo-2-methylphenyl)amino]-N-ethoxyisonicotinamide], the half-life at 3 µM in data set [3] and in data set [5] was 0.517 to 2 h each time. Moreover, the IC50 in the data set with human melanoma cell MeI5 was 3000 to 10000 nM; on human MEK1, < 1000 nM; in data set [2] it was ≤ 3 µM.

(Values after patent US8524911B2, “3-arylamino pyridine derivatives” (Merck Serono SA, priority 2004, dated 2013).)
